How the values were obtained:
mushroom tyrosinase = test: Anti-tyrosinase activity, L-DOPA as substrate; assay type: biochemical; conditions: for IC50: IC50 ± SD, pH 6.8, read-out: Tyrosinase inhibitory activity IC50
Protocol: All compounds were investigated for potential tyrosinase inhibitory activity.
The anti-tyrosinase activities of the isolates were investigated according to the procedure described by Aoki et al. with slight modifications. […] Solution of L-DOPA at 5.0 mM, mushroom tyrosinase at 100 U/mL, as well as samples at different concentrations were prepared in phosphate buffer (pH 6.8). 20 µL of the sample solution and 10 µL of mushroom tyrosinase solution were mixed and pre-incubated at 37 °C for 10 min, then 40 µL of L-DOPA solution was added and incubated at 37 °C for 5 min. The absorbance was measured at 475 nm using the Spark 10M multimode microplate reader (Tecan Trading AG, Zurich, Switzerland). All assays were repeated three times and each time in triplicate. The percent inhibition of tyrosinase activity was calculated using the following formula:Tyrosinase inhibition (%) = [1 − (T − T0)/(C − C0)] × 100 where T represents the absorbance with sample and tyrosinase; T0 represents the absorbance with sample but no tyrosinase; C represents the absorbance with tyrosinase but no sample; C0 represents the absorbance without tyrosinase and sample.

[1] = cited from earlier work
[2] = system: LPS-stimulated RAW 264.7 cells; test: NO production by LPS-stimulated RAW 264.7 cells (Griess); assay type: cell-based; conditions: Mus musculus, RAW264.7, read-out: IC50 for the inhibition of NO production
Protocol: Four new compounds 1–4 were tested for potential anti-inflammatory activity by measuring the inhibition of the nitric oxide (NO) production. […] The IC50 values for the inhibition of NO production by compounds 1–4 are all > 50 μM. […] From the experimental results and literature data, the flavonoids in the title plant have better anti-inflammatory activity than ellagitannins, it may be the active ingredient corresponding to the anti-inflammatory effect of this plant.
The RAW 264.7 cells were cultivated in DMEM supplemented with 10% FBS at 37 °C in a humidified atmosphere of 5% CO2 for 24 h. Cells in 24-well plate (5 × 10^4 cells/well) were treated with 200 ng/mL LPS and the test compounds. After 22 h, the media were collected, and the level of nitrite was measured using the Griess Reagent System (Promega, Madison, WI, USA).

Row | SMILES | IC50 (mushroom tyrosinase) | IC50 [2] | tyrosinase inhibitory activity (in words) (mushroom tyrosinase) | anti-inflammatory activity (in words) [1]
1 | C[C@@H]1O[C@@H](Oc2c(-c3ccc(O)c(O)c3)oc3cc(O)cc(O)c3c2=O)[C@H](O)[C@H](O)[C@H]1O [Compound 11, quercetin-3-O-α-L-rhamnoside] | 98.2 ± 2.31 µM |  |  | have no anti-inflammatory activity
2 | O=c1c(O)c(-c2ccc(O)cc2)oc2cc(O)cc(O)c12 [Compound 7, kaempferol] | 1900 ± 38.2 µM |  |  | have anti-inflammatory activity
3 | COc1c(O)cc(C(=O)O[C@@H]2O[C@H](COC(=O)c3cc(O)c(O)c(O)c3)[C@@H](O)[C@@H]3OC(=O)c4cc(O)c(O)c(O)c4-c4c(cc(O)c(O)c4O)C(=O)O[C@@H]23)cc1O [Compound 2, 1-O-(4-methoxygalloyl)-6-O-galloyl-2,3-O-(S)-hexahydroxydiphenoyl-β-D-glucose] | 241 ± 6.23 µM | > 50 µM |  | 
4 | COc1cc(C(=O)OC[C@H]2O[C@@H](OC(=O)c3cc(O)c(O)c(O)c3)[C@@H]3OC(=O)c4cc(O)c(O)c(O)c4-c4c(cc(O)c(O)c4O)C(=O)O[C@H]3[C@@H]2O)cc(O)c1O [Compound 3, 1-O-galloyl-6-O-(3-methoxygalloyl)-2,3-O-(S)-hexahydroxydiphenoyl-β-D-glucose] | 154 ± 3.63 µM | > 50 µM |  | 
5 | C[C@@H]1O[C@@H](Oc2c(-c3cc(O)c(O)c(O)c3)oc3cc(O)cc(O)c3c2=O)[C@H](O)[C@H](O)[C@H]1O [Compound 12, myricetin-3-O-α-L-rhamnopyranoside] | 905 ± 20.4 µM |  | no significant | have anti-inflammatory activity

Second part, led by results:

Row | IC50 (mushroom tyrosinase) | IC50 [2] | tyrosinase inhibitory activity (in words) (mushroom tyrosinase) | SMILES | anti-inflammatory activity (in words) [1]
6 |  |  | significant | O=c1c(O)c(-c2ccc(O)c(O)c2)oc2cc(O)cc(O)c12 [Compound 10, quercetin] | have anti-inflammatory activity
7 | 426 ± 11.3 µM | > 50 µM | weak | CCOC(=O)C1(O)C(=O)C2=C3C(=O)OC(C2OCC)C2OC(=O)c4c(c(O)c(O)c(O)c4C31)-c1c(cc(O)c(O)c1O)C(=O)OC1COC(=O)c3cc(O)c(O)c(O)c3-c3c(cc(O)c(O)c3O)C(=O)OC12 (stereo not drawn) [Compound 1, Whiskey tannin C] | 
8 | 125 ± 3.12 µM | > 50 µM |  | COc1cc(C(=O)OC[C@H]2O[C@@H](OC(=O)c3cc(O)c(O)c(O)c3)[C@@H]3OC(=O)c4cc(O)c(O)c(O)c4-c4c(cc(O)c(O)c4O)C(=O)O[C@H]3[C@@H]2O)ccc1O [Compound 4, 1-O-galloyl-6-O-vanilloyl-2,3-O-(S)-hexahydroxydiphenoyl-β-D-glucose] | 
9 | > 2000 µM |  | no significant | C[C@@H]1O[C@@H](Oc2c(-c3ccc(O)cc3)oc3cc(O)cc(O)c3c2=O)[C@H](O)[C@H](O)[C@H]1O [Compound 8, kaempferol-3-rhamnoside] | have no anti-inflammatory activity

Source: paper PMC8271706, “Structural Characterization and Assessment of Anti-Inflammatory and Anti-Tyrosinase Activities of Polyphenols from Melastoma normale” (Molecules, 2021)
